Earlier results in US20110301131A1, “Drug Delivery Implants and Processes for Their Preparation” (priority 2008, published 2011).

Settings: bupivacaine used in regional anaesthesia

Q: With CCCCN1CCCCC1C(=O)Nc1c(C)cccc1C (stereo not shown) [bupivacaine] as the compound, how does the Half-life read?
A: Its Half-life is “about 3 hours”.
